This is an account of results in patent US10851082B2, “Substituted aromatic n-heterocyclic compounds as inhibitors of mitogen-activated protein kinase interacting kinase 1 (MNK1) and 2 (MNK2)” (Northwestern University, priority 2015, dated 2020).

Where two headings read alike, the source gives them in different places. Some results are limits rather than exact numbers.

The subject of assay [1] is MV4-11 cells. As to the kind of experiment: Cell viability assay (CellTiter-Glo), MV4-11. In kind it is cell-based. As to conditions: Homo sapiens; MV4-11 cells, ATP levels with CellTiter-Glo; read-out: MV4-11 viability EC50. Background: Cellular ATP, detected with luciferase, serves as a proxy for viable cell number.
Procedure: (§1) To measure the ability of the new Mnk1/2 inhibitors to kill cancer cells in vitro, U937 or MV4-11 cells were incubated with different concentrations of test compounds and analyzed for apoptosis and cell viability at 5 and 24 hours post-treatment.
The target in assay [2] is Mnk1 (Homo sapiens (Human), UniProt Q9BUB5). As to the kind of experiment: Mnk1 kinase inhibition, ADP-Glo ADP monitoring assay. Format: biochemical. Background: ADP-Glo turns the ADP formed in a reaction into a luminescent signal.
Mnk1 (Homo sapiens (Human), UniProt Q9BUB5), sequence (Q9BUB5 whole entry): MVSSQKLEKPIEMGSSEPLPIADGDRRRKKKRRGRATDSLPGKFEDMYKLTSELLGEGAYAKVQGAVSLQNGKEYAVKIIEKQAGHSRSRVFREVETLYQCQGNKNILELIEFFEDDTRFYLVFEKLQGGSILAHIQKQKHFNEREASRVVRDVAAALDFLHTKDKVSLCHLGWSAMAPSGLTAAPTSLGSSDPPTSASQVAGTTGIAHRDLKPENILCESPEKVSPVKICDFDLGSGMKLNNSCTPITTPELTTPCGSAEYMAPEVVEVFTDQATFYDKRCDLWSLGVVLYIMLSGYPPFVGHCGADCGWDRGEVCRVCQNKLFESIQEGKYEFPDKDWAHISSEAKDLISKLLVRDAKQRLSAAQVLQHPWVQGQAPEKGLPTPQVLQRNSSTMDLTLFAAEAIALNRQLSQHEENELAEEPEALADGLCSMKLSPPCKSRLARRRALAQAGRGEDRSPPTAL
Procedure: (§2) The synthesized compounds then were tested for inhibition of the kinase activity (IC50) of Mnk1 and/or Mnk2 using the ADP monitoring assay for kinases described in Zegzouti, H.; Zdanovskaia, M.; Hsiao, K.; Goueli, S. A., ADP-Glo: A Bioluminescent and homogeneous ADP monitoring assay for kinases.
Assay [3] deals with Mnk1. As to the kind of experiment: Cellular inhibition of Mnk1, flow cytometry of phospho-eIF-4E (Ser209), U937 cells. In kind it is cell-based.
Procedure: (§3) To evaluate inhibition of Mnk1 in cells, we utilized a flow cytometry-based assay based on activation of eIF-4E, the downstream target of Mnk1. The assay utilizes flow cytometry to quantitatively measure the amount of eIF-4E that is phosphorylated at residue Ser209 in cell lysate from U937 or MV4-11 cell lines. Cells grown in the presence of serum were treated with vehicle or test compounds across a range of concentrations. Levels of phospho-eIF-4E were measured and IC50 values were determined by logistic regression to quantify the potency of each compound.
Assay [4] deals with Mnk1. As to the kind of experiment: Cellular inhibition of Mnk1, flow cytometry of phospho-eIF-4E (Ser209), MV4-11 cells. Format: cell-based. (In general: A flow cytometer gives signals particle by particle.)
Procedure: as §3
In assay [5] the test system is U937 cells. As to the kind of experiment: Cell viability assay (CellTiter-Glo), U937. As to conditions: Homo sapiens, U-937; U937 cells, ATP levels with CellTiter-Glo; read-out: U937 viability EC50. Format: cell-based.
Procedure: as §1
For assay [6], the target named is Mnk2 (Homo sapiens (Human), UniProt Q9HBH9). As to the kind of experiment: Mnk2 kinase inhibition, ADP-Glo ADP monitoring assay. Format: biochemical.
Mnk2, sequence (Q9HBH9 whole entry): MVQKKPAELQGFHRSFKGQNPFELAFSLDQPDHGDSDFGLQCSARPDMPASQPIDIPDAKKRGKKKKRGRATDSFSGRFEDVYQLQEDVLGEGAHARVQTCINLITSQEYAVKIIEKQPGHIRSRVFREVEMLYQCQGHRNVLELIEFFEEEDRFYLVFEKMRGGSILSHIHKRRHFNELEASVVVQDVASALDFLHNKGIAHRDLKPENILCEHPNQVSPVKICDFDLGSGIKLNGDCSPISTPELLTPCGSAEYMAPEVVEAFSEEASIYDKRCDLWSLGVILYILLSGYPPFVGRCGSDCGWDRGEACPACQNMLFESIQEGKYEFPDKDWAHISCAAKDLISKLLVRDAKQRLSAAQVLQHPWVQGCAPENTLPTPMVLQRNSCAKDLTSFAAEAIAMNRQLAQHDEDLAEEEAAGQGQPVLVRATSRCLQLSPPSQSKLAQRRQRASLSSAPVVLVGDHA
Procedure: as §2
[7] abbreviates: read-out: U937 pEIF4E IC50, phospho-eIF-4E Ser209, flow cytometry.
Where [8] appears, read: read-out: MV4-11 pEIF4E IC50, phospho-eIF-4E Ser209, flow cytometry.
Where [9] appears, read: ADP-Glo kinase assay, read-out: Mnk2 IC50.
Setting [10] is: read-out: Mnk1 inhibition IC50 (+,++,+++).
Setting [11] is: read-out: MV4-11 pEIF4E cellular flow IC50 (+,++,+++), flow cytometry.
[12] abbreviates: ADP-Glo kinase assay, read-out: Mnk2 inhibition IC50 (+,++,+++).
The mark [13] stands for this setting: read-out: U937 pEIF4E cellular flow IC50 (+,++,+++), flow cytometry.

One may read the EC50 as the concentration at which the effect is half-maximal. What is called IC50 is the midpoint of a concentration-inhibition curve.

On to `Clc1cccc(-n2cc(-c3ccnc(NCCc4c[nH]cn4)n3)cn2)c1` [NUCC-0054135], for which the EC50 in assay [1] stood at 240 nM; in assay [5], 3400 nM. For the same compound, the values for the IC50 in assay [2] (read-out: Mnk1 IC50), in assay [3] (setting [7]) and in assay [4] (setting [8]) were 6000 nM, 81 nM and 66 nM, respectively.
Regarding `CCn1cncc1CNc1nccc(-c2cnn(-c3cccc(OC)c3)c2)n1` [NUCC-0054136], the figures for the EC50 in assay [1] and in assay [5] were 4500 nM and 10000 nM, respectively. In addition, the results for the 50% inhibitory concentration (IC50) in assay [2] (read-out: Mnk1 IC50), in assay [3] (setting [7]) and in assay [4] (setting [8]) were 10000 nM, 140 nM and 100 nM, respectively.
`CN(C)CCNc1nccc(-c2cnn(C)c2)n1` [NUCC-0060898]: the values for the EC50 in assay [1] and in assay [5] were 190 nM and 13000 nM, respectively. Further, the IC50 in assay [2] (read-out: Mnk1 IC50) came to 5000 nM; in assay [3] (setting [7]) it was 42 nM; in assay [4] (setting [8]), 35 nM.
Consider `c1ccc2c(c1)ccn2-c1ccnc(NCCc2ccncc2)n1` [NUCC-0060954], for which the values for the concentration for a half-maximal effect (EC50) in assay [1] and in assay [5] were 410 nM and 2600 nM, respectively.
Take `c1ccc2c(c1)ncn2-c1ccnc(NCCc2ccncc2)n1` [NUCC-0060957]: the figures for the EC50 in assay [1] and in assay [5] were 120 nM and 5300 nM, respectively.
Take `c1ccc2c(c1)ccn2-c1ccnc(NCCc2cnc[nH]2)n1` [NUCC-0060958]: the IC50 in assay [2] (read-out: Mnk1 IC50) stood at 900 nM; in assay [3] (setting [7]), 230 nM; in assay [4] (setting [8]), 47 nM; in assay [6] (setting [9]) it was 95 nM.
Turning to `c1ccc2c(c1)ncn2-c1ccnc(NC2CCOC2)n1` (stereo not shown) [NUCC-0125583], the results for the EC50 in assay [1] and in assay [5] were 620 nM and > 10000 nM, respectively. In addition, in assay [6] (setting [9]), the IC50 was 9.5 nM.
As for `c1ccc2c(c1)ncn2-c1ccnc(Nc2ccncc2)n1` [NUCC-0125585], the EC50 in assay [1] amounted to 310 nM; in assay [5] it was 10000 nM. Further, the IC50 was 140 nM in assay [2] (read-out: Mnk1 IC50), 51 nM in assay [3] (setting [7]) and 40 nM in assay [4] (setting [8]).
Consider `c1ccc2c(c1)ncn2-c1ccnc(NC2CCNC2)n1` (stereo not shown) [NUCC-0125592], for which the values for the EC50 in assay [1] and in assay [5] were 80 nM and > 10000 nM, respectively. Besides, the IC50 in assay [2] (read-out: Mnk1 IC50) worked out at 150 nM; in assay [3] (setting [7]) it was 1100 nM; in assay [4] (setting [8]) it was 69 nM; in assay [6] (setting [9]), 40 nM.
As for `Clc1cnc(NCCc2ccncc2)nc1-n1cnc2ccccc21` [NUCC-0175697], the EC50 in assay [1] turned out to be 350 nM; in assay [5], 7000 nM.
On to `c1ccc2c(c1)ncn2-c1ccnc(N[C@H]2CCOC2)n1` [NUCC-0176148], for which the EC50 is 440 nM in assay [1] and > 10000 nM in assay [5]. In addition, the IC50 in assay [6] (setting [9]) came to 46 nM.
With `N#Cc1cnc(NCCc2ccncc2)nc1-n1cnc2ccccc21` [NUCC-0176343], the EC50 is 410 nM in assay [1] and 2600 nM in assay [5].
As for `Clc1cnc(OCCc2ccncc2)nc1-n1cnc2ccccc21` [NUCC-0196254, 1-(5-chloro-2-(2-(pyridin-4-yl)ethoxy)pyrimidin-4-yl)-1H-benzo[d]imidazole], the IC50 in assay [2] (setting [10]) is < 1000 nM; in assay [2] (unit inferred, read-out: Mnk1 IC50), 54 nM; in assay [4] (setting [11]), < 1000 nM; in assay [6] (setting [12]), < 1000 nM; in assay [6] (ADP-Glo kinase assay, unit inferred, read-out: Mnk2 IC50), 9.6 nM.
Regarding `N#Cc1cnc(OCCc2ccncc2)nc1-n1cnc2ccccc21` [NUCC-0200786], the IC50 in assay [2] (setting [10]), in assay [3] (setting [13]), in assay [4] (setting [11]) and in assay [6] (setting [12]) was < 1000 nM throughout.
As to `N#Cc1cnc(OCCN2CCCC2=O)nc1-n1cnc2ccccc21` [NUCC-0200788], the IC50 in assay [2] (setting [10]), in assay [3] (setting [13]), in assay [4] (setting [11]) and in assay [6] (setting [12]) was < 1000 nM each time.
As to `N#Cc1cnc(OCCc2ccccn2)nc1-n1cnc2ccccc21` [NUCC-0200790], the IC50 in assay [2] (setting [10]), in assay [3] (setting [13]), in assay [4] (setting [11]) and in assay [6] (setting [12]) was < 1000 nM each time.
As for `N#Cc1cnc(OC2CCOC2)nc1-n1cnc2ccccc21` (stereo not shown) [NUCC-0200792], the IC50 in assay [2] (setting [10]), in assay [3] (setting [13]), in assay [4] (setting [11]) and in assay [6] (setting [12]) was < 1000 nM throughout.
Turning to `N#Cc1cnc(OC2CCNC2)nc1-n1cnc2ccccc21` (stereo not shown) [NUCC-0200793], the 50% inhibitory concentration (IC50) in assay [2] (setting [10]), in assay [3] (setting [13]), in assay [4] (setting [11]) and in assay [6] (setting [12]) was < 1000 nM in each case.
As for `Clc1cnc(OC2CCCOC2)nc1-n1cnc2ccccc21` (stereo not shown) [NUCC-0200803], the IC50 in assay [2] (setting [10]), in assay [3] (setting [13]), in assay [4] (setting [11]) and in assay [6] (setting [12]) was < 1000 nM in each case.
As to `Clc1cnc(OCCc2ccccn2)nc1-n1cnc2ccccc21` [NUCC-0200807], the IC50 in assay [2] (setting [10]), in assay [3] (setting [13]), in assay [4] (setting [11]) and in assay [6] (setting [12]) was < 1000 nM throughout.
In the case of `O=C1CCCN1CCOc1ncc(Cl)c(-n2cnc3ccccc32)n1` [NUCC-0200811], the IC50 in assay [2] (setting [10]), in assay [3] (setting [13]), in assay [4] (setting [11]) and in assay [6] (setting [12]) was < 1000 nM throughout.
In the case of `N#Cc1cnc(OC2CC(N)C2)nc1-n1cnc2ccccc21` (stereo not shown) [NUCC-0200907, 2-(3-aminocyclobutoxy)-4-(1H-benzo[d]imidazol-1-yl)pyrimidine-5-carbonitrile], the IC50 in assay [2] (setting [10]), in assay [3] (setting [13]), in assay [4] (setting [11]) and in assay [6] (setting [12]) was < 1000 nM throughout.
For `NC(=O)c1ccc(-c2cnc(OC3CCNC3)nc2-n2cnc3ccccc32)cc1` (stereo not shown) [NUCC-0201903], the IC50 in assay [2] (setting [10]) and in assay [6] (setting [12]) was < 1000 nM in each case.
Turning to `N#Cc1cnc(NC2CNC(=O)C2)nc1-n1cnc2ccccc21` (stereo not shown) [NUCC-0201905], the IC50 in assay [2] (setting [10]) and in assay [6] (setting [12]) was < 1000 nM throughout.
On to `Fc1cccc(CCOc2ncc(Cl)c(-n3cnc4ccccc43)n2)c1` [NUCC-0201906], for which the IC50 in assay [2] (setting [10]) and in assay [6] (setting [12]) was < 1000 nM each time.
As to `N#Cc1cnc(-n2cnc3ccccc32)nc1OCCc1ccnc(F)c1` [NUCC-0201907], the IC50 in assay [2] (setting [10]) and in assay [6] (setting [12]) was < 1000 nM throughout.
For `CC(C)(COc1nc(-n2cnc3ccccc32)ncc1C#N)c1ccnc(F)c1` [NUCC-0201908], the IC50 in assay [2] (setting [10]) and in assay [6] was 1000 to 10000 nM in each case.
With `CC(C)(COc1ncc(Cl)c(-n2cnc3ccccc32)n1)c1ccnc(F)c1` [NUCC-0201914], the IC50 in assay [2] (setting [10]) and in assay [6] (setting [12]) was < 1000 nM throughout.
In the case of `NC1CC(Oc2nc(C3CC3)c(Cl)c(-n3cnc4ccccc43)n2)C1` (stereo not shown) [NUCC-0201915, 3-((4-(1H-benzo[d]imidazol-1-yl)-5-chloro-6-cyclopropylpyrimidin-2-yl)oxy)cyclobutanamine], the IC50 in assay [2] (setting [10]) and in assay [6] was 1000 to 10000 nM each time.
As to `CCc1nc(OC2CC(N)C2)nc(-n2cnc3ccccc32)c1Cl` (stereo not shown) [NUCC-0201916], the IC50 in assay [2] (setting [10]) and in assay [6] was 1000 to 10000 nM in each case.
Regarding `CC(C)(COc1ncc(C#N)c(-n2cnc3ccccc32)n1)c1ccnc(F)c1` [NUCC-0201917], the IC50 in assay [2] (setting [10]) and in assay [6] (setting [12]) was < 1000 nM in each case.
Consider `N#Cc1cnc(OCCc2ccnc(F)c2)nc1-n1cnc2ccccc21` [NUCC-0201918], for which the IC50 in assay [2] (setting [10]) and in assay [6] (setting [12]) was < 1000 nM throughout.
For the compound `CC(C)(COc1ncc(Cl)c(OCC(C)(C)c2ccnc(F)c2)n1)c1ccnc(F)c1` [NUCC-0201919], the IC50 in assay [2] (setting [10]) and in assay [6] was 1000 to 10000 nM each time.
`CC(C)(COc1nc(-n2cnc3ccccc32)ncc1Cl)c1ccnc(F)c1` [NUCC-0201920]: the IC50 in assay [2] (setting [10]) and in assay [6] (setting [12]) was < 1000 nM each time.
